Like-named read-outs stand apart in the source and are kept apart here.
Target: α-glucosidase from Saccharomyes cerevisiae (Saccharomyces cerevisiae, UniProt P53341)
Experiment: α-Glucosidase inhibition assay (PNPG substrate, OD 405 nm)
Type: biochemical
Conditions: for inhibition at 100 µM: read-out: %Inhibition (100 μM); for inhibitory activity against α-glucosidase, in words: at 100 μM; for inhibition at 50 µM: read-out: %Inhibition (50 μM)
Protocol: The α-glucosidase inhibitory effect was assessed using a previously described method with slight modification. 0.2 U of α-glucosidase from Saccharomyes cerevisiae purchased from Sigma-Aldrich (St. Louis, MO, USA) was diluted to 0.1 M phosphate buffer consisting of Na2HPO4 and NaH2PO4 (pH 6.8). The assay was conducted in a 200 μL reaction system containing 148 μL of the buffer, 25 μL of diluted enzyme solution, and 2 μL of DMSO or sample (dissolved in DMSO). After 20 min of incubation in the 96-well plates at 37 °C, 25 μL of 0.4 mM 4-nitrophenyl-[…]-D-glucopyranoside (PNPG, Aladdin, Shanghai, China) was added as a substrate to start the enzymatic reaction. The plate was incubated for an additional 15 min at 37 °C, followed by the measurement of the optical density (OD). The final concentrations of tested compounds were between 0.39 and 100 μM. The OD was measured at an absorbance wavelength of 405 nm using a Microplate Reader (Tecan, Switzerland).

[1] = α-glucosidase, compound at 100 μM

Sequence of α-glucosidase from Saccharomyes cerevisiae (P53341 whole entry): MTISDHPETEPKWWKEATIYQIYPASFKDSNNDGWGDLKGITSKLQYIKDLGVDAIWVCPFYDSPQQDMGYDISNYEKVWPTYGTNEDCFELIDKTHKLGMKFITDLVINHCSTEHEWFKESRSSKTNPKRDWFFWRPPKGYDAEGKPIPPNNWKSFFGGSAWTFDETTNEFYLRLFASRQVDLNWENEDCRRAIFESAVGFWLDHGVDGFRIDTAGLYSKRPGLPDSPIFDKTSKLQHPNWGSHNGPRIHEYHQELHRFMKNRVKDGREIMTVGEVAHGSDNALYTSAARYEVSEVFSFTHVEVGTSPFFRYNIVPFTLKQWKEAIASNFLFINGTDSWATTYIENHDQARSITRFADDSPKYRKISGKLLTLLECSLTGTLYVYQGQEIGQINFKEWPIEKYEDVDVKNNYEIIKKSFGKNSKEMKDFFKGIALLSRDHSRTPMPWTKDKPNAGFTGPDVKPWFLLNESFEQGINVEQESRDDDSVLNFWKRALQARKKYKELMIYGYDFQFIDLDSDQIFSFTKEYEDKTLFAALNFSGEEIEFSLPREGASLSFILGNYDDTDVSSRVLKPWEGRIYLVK

| Structure (SMILES) | inhibition at 100 µM [1] [%] | inhibitory activity against α-glucosidase, in words | inhibition at 100 µM [%] | inhibition at 50 µM [%] |
| --- | --- | --- | --- | --- |
| COC(=O)[C@]1(Cc2ccc3c(c2)C=CC(C)(C)O3)OC(=O)C(O)=C1c1ccc(O)cc1 [Compound 9, aspernolide E] | 90.4 |  |  |  |
| COC(=O)[C@]1(Cc2ccc3c(c2)CCC(C)(C)O3)OC(=O)C(O)=C1c1ccc(O)cc1 [Compound 8, aspernolide A] |  | significant inhibition | 89.2 |  |
| CCOC(=O)[C@]1(Cc2ccc3c(c2)C[C@H](C(C)(C)O)O3)OC(=O)C(O)=C1c1ccc(O)cc1 [Compound 2, Aspernolide O] | 23.2 |  |  |  |
| CCOC(=O)[C@]1(Cc2ccc3c(c2)CC(O)C(C)(C)O3)OC(=O)C(O)=C1c1ccc(O)cc1 (stereo partly shown) [Compound 3, Aspernolide P] | 26.4 |  |  |  |
| COC(=O)[C@]1(Cc2ccc3c(c2)C[C@H](C(C)(C)O)O3)OC(=O)C(O)=C1c1ccc(O)cc1 [Compound 4, butyrolactone IV] |  |  | 37.3 |  |
| COC(=O)[C@]1(Cc2ccc(O)c(CC=C(C)C)c2)OC(=O)C(O)=C1c1ccc(O)cc1 [Compound 6, butyrolactone I] |  |  | 100 | 89.4 |
| COC(=O)[C@]1(Cc2ccc3c(c2)C[C@H](O)C(C)(C)O3)OC(=O)C(O)=C1c1ccc(O)cc1 [Compound 5, butyrolactone V] | 21.6 | negligible inhibitory activity |  |  |
| COC(=O)[C@]1(Cc2ccc3c(c2)C[C@H](C(C)(C)O)O3)OC(=O)C(O)=C1c1ccccc1 [Compound 1, Aspernolide N] | 18.6 |  |  |  |
| CCOC(=O)[C@]1(Cc2ccc(O)c(CC=C(C)C)c2)OC(=O)C(O)=C1c1ccc(O)cc1 [Compound 7, butyrolactone VII] |  |  | 100 | 98.7 |

From article PMC6627487, “Butenolide Derivatives with α-Glucosidase Inhibitions from the Deep-Sea-Derived Fungus Aspergillus terreus YPGA10” (Marine Drugs, 2019)
